According to publication PMC12648864 (Biology of Sex Differences, 2025):
Where two headings read alike, the source gives them in different places.

Legend:
[1] = cited from earlier work
[2] = parameters: method as in PMID 27169283; conditions: ovariectomized rat, plasma; cited from earlier work
in vivo = conditions: for AUC(0-t) / AUC(0-inf) / Cmax / Tmax / half-life: Sprague-Dawley, rat, plasma, po, 0.59 mg/kg
Excerpt: In detail, 6 intact 8-week-old male and female Sprague-Dawley (SD) rats, as well as 6 intact 5-week-old male and female SD rats were purchased from Changyang Xishan Breeding Farm (Beijing Changyang Xishan Breeding Farm, China). All rats were provided standard chow and freely-available drinking water. They were acclimatized for 1 week and fasted overnight before drug administration. The rats were divided into intact and GDX groups, with 6 males and 6 females in each group. In GDX group, testes were surgically removed from male rat at 5 weeks of age, while ovaries were excised from female rat. Following surgery, GDX rats were maintained for an additional […] before testing. All animals, both intact and GDX, were tested at 8 weeks of age.
Blood was collected from orbital vein into a centrifuge tube containing sodium heparin at following time points: 5, 10, 15, 30, and 45 min, as well as 1, 1.5, 2, 4, 6, 8, 12, 24, and 48 h. The collected blood was shaken well and centrifuged at 1500 g for 10 min to separate plasma, then stored at −20 ℃ until use. All experimental procedures were reviewed and approved by the Ethical Committee for Use of Laboratory Animals of the Shanxi Medical University (SYDL2025013).
In detail, 180 µL of plasma was pipetted into a tube, followed by the addition of 20 µL of internal standard (100 ng/mL ephedrine) and the mixture was vortexed for 5 s. Next, 1 mL of acetonitrile precipitation protein was added to this mixture, which was vortexed again for 20 s. Finally, the mixture was centrifuged at 13,000 g for 10 min and the supernatant was transferred to a clean tube. This supernatant was evaporated to dryness under a stream of nitrogen at 35 ℃, then reconstituted in 200 µL of a compound solution consisting of methanol and […] ammonium formate (containing 0.1% formic acid) in a 40:60 (v/v) ratio. The reconstituted supernatant was stored at −80 ℃ until use. Subsequently, the supernatant was passed through a 0.22 μm organic filter before analysis using 1260–6470 HPLC-tandem mass spectrometry (MS/MS).
The mobile phase consisted of A: water + […] ammonium formate + 0.1% formic acid, and B: methanol. The gradient elution program was as follows: 0–1 min, 20% B; 1–6.5 min, 20%−80% B; 6.5–7.5 min, 80% B; 7.5–8.5 min, 80%−20% B; 8.5–12 min, 20% B.
MS conditions: Detection was carried out using an Agilent Jet Stream electrospray ionization source in positive ion mode, operating in multiple reaction monitoring mode. The ion source temperature was 300 ℃, and the nebulizer temperature was 305 ℃. The gas flow rate was maintained at 11.0 L/min, with the capillary voltage of 4000 V.

[3] = parameters: method as in PMID 38276513; conditions: following gonadectomy; cited from earlier work
[4] = female, GDX female rats, oral 0.59 mg/kg
[5] = female, intact female rats, oral 0.59 mg/kg
[6] = male, GDX male rats, oral 0.59 mg/kg
[7] = male, intact male rats, oral 0.59 mg/kg

In the case of COc1c([C@H]2[C@H](C(=O)Nc3ccnc(C(N)=O)c3)O[C@@](C)(C(F)(F)F)[C@H]2C)ccc(F)c1F [VX-548], the AUC ([1]; female rats) is listed as 1.5058 ± 0.0473 µg·h/mL, the clearance rate ([1]; female rats) is listed as 0.75 ± 0.048 L/h/kg and the AUC ([1]; male rats) is listed as 0.2538 ± 0.0063 µg·h/mL. For the same molecule, the clearance rate ([1]; male rats) was 3.91 ± 0.102 L/h/kg.

In the case of C[C@H]1O[C@@H](O[C@H]2[C@@H](O)C[C@H](O[C@H]3[C@@H](O)C[C@H](O[C@H]4CC[C@@]5(C)[C@H](CC[C@@H]6[C@@H]5C[C@@H](O)[C@]5(C)[C@@H](C7=CC(=O)OC7)CC[C@]65O)C4)O[C@@H]3C)O[C@@H]2C)C[C@H](O)[C@@H]1O [digoxin], the “peak digoxin concentration after ovariectomy” value [2] is given as “significantly lower”.

In the case of O=C1C[C@@H]2OCC=C3CN4CC[C@]56c7ccccc7N1[C@H]5[C@H]2[C@H]3C[C@H]46 [strychnine, Strychnine nitrate], the “delay of time to peak concentration, female later than male rats” value (in vivo; GDX group, oral 0.59 mg/kg) is reported as 0.6 h, the “peak of plasma concentration in female rats relative to male rats” value (in vivo; GDX group, oral 0.59 mg/kg) is reported as 3.70 times and the AUC(0-t) (in vivo; [4]) is reported as 0.489 ± 0.0406 µg·h/mL. It also gave an AUC(0-t) (in vivo; [5]) of 0.409 ± 0.0584 µg·h/mL, an AUC(0-inf) (in vivo; [4]) of 0.501 ± 0.0435 µg·h/mL and an AUC(0-inf) (in vivo; [5]) of 0.403 ± 0.0577 µg·h/mL. The Cmax (in vivo; [4]) was 0.0481 ± 0.00406 µg/mL, the Cmax (in vivo; [5]) was 0.116 ± 0.0027 µg/mL and the Tmax (in vivo; female) was 0.63 ± 0.14 h. The Tmax (in vivo; [4]) was 1.6 ± 0.22 h, the half-life (in vivo; female, t1/2, GDX female rats, oral 0.59 mg/kg) was 9.06 ± 1.82 h and the half-life (in vivo; female, t1/2, intact female rats, oral 0.59 mg/kg) was 5.7 ± 2.6 h. For the same molecule, the “delay of time to peak concentration, female later than male rats” value (in vivo; intact group, oral 0.59 mg/kg) was 0.05 h, the “peak of plasma concentration in female rats relative to male rats” value (in vivo; intact group, oral 0.59 mg/kg) was 3.49 times and the AUC(0-t) (in vivo; [6]) was 0.152 ± 0.0104 µg·h/mL. It also gave an AUC(0-t) (in vivo; [7]) of 0.0968 ± 0.0249 µg·h/mL, an AUC(0-inf) (in vivo; [6]) of 0.153 ± 0.0103 µg·h/mL and an AUC(0-inf) (in vivo; [7]) of 0.097 ± 0.0247 µg·h/mL. It also gave a Cmax (in vivo; [6]) of 0.013 ± 0.0006 µg/mL, a Cmax (in vivo; [7]) of 0.0334 ± 0.00201 µg/mL and a Tmax (in vivo; male) of 0.58 ± 0.13 h. The Tmax (in vivo; [6]) was 1 h, the half-life (in vivo; male, t1/2, GDX male rats, oral 0.59 mg/kg) was 7.68 ± 0.94 h and the half-life (in vivo; male, t1/2, intact male rats, oral 0.59 mg/kg) was 3.84 ± 1.48 h.

For NCCCC(=O)O [γ-aminobutyric acid], the “area under the curve, testosterone-treated male rats versus female rats with similar treatment” value [3] is given as “higher” and the “renal clearance, testosterone-treated male rats versus female rats with similar treatment” value [3] is given as “significantly lower”.
